Structures are written as SMILES. pIC50: −log10 of the molar value.

One data set deals with MKN1 cells. In words: MKN1 CTG proliferation assay (120 h) (gastric cancer, wt amplified). The class given is cell-based. The settings on record: Homo sapiens, MKN-1. As to the method:
(§1) MKN1 cells (JCRB0252) are dispensed into black 384-well plates, flat and clear bottom (Greiner, PNr. 781091) at a density of 200 cells per well in 60 μl RPMI-1640 ATCC-Formulation (Gibco #A10491)+10% FCS (fetal calf serum, HyClone, SH30084.03). Cells are incubated overnight at 37° C. in a humidified tissue culture incubator at 5% CO2. Compounds (10 mM stock in DMSO) are added at logarithmic dose series using the ECHO acoustic liquid handler system (Beckman Coulter), normalizing for added DMSO and including DMSO controls. All compound treatments are performed in technical duplicates. For the TO time point measurement, untreated cells are analyzed at the time of compound addition. Plates are incubated for 120 h, and cell viability is measured using CellTiter-Glo luminescent cell viability reagent (Promega product code G7570). Viability (stated as percent of control) is defined as relative luminescence units RLU of each well divided by the RLU of cells in DMSO controls. IC50 values are determined from viability measurements by non-linear regression using a four-parameter model.
(§2) IC50 values of representative compounds according to the invention measured with these assays in the indicated cell lines are presented in Table 46.
Turning to `CCn1c(=O)n([C@@H]2CCOC2)c2nc(-c3onc4c3CCC[C@@]43CCCc4sc(N)c(C#N)c43)nc(O[C@@H](C)[C@@H]3CCCN3C)c21` [I-21], the negative logarithm of the IC50 (pIC50) is 7.66.

The compound `C[C@H](Oc1nc(-c2onc3c2CCC[C@@]32CCCc3sc(N)c(C#N)c32)nc2c1n(C)c(=O)n2[C@@H]1CCOC1)[C@@H]1C[C@H](F)CN1C` [I-27] showed a negative logarithm of the IC50 (pIC50) of 6.90.

On to `C[C@H](Oc1nc(-c2onc3c2CCC[C@@]32CCCc3sc(N)c(C#N)c32)nc2c1n(C)c(=O)n2C1CCOCC1)[C@@H]1CCCN1C` [I-10], for which the negative logarithm of the IC50 (pIC50) was 6.96.

Regarding `CO[C@@H]1C[C@@H]([C@H](C)Oc2nc(-c3onc4c3CCC[C@@]43CCCc4sc(N)c(C#N)c43)nc3c2n(C)c(=O)n3[C@@H]2CCOC2)N(C)C1` [I-3], the pIC50 was 7.66.

Compound `C[C@H](Oc1nc(-c2noc3c2CCC[C@@]32CCCc3sc(N)c(C#N)c32)nc2c1n(C)c(=O)n2[C@@H]1CCOC1)[C@@H]1CCCN1C` [II-2] had a negative-log IC50 (pIC50) of 8.40.

Turning to `C[C@H](Oc1nc(-c2onc3c2CCC[C@@]32CCCc3sc(N)c(C#N)c32)nc2c1n(C)c(=O)n2[C@H]1CC2CCC1O2)[C@@H]1CCCN1C` (stereo partly drawn) [I-17], the negative-log IC50 (pIC50) was 6.49.

A further data set relates to Ba/F3 cells KRAS G12C. Briefly: Ba/F3 proliferation assay (KRAS G12C). The class given is cell-based. The settings on record: Mus musculus, BaF3, 72 h, AlamarBlue viability. Put shortly:
(§3)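 Ba/F3 cells retrovirally transduced with KRAS G12 mutant, puromycin-selected, grown IL-3-independent; seeded in RPMI-1640 + 10% FCS without IL-3. Logarithmic compound dose series in duplicate, 72 h at 37° C., AlamarBlue fluorescence as % of DMSO control; IC50 from four-parameter non-linear regression.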
(In general: Resazurin is reduced to fluorescent resorufin, in cell work by metabolically active cells.)
As for `CCn1c(=O)n([C@@H]2CCOC2)c2nc(-c3onc4c3CCC[C@@]43CCCc4sc(N)c(C#N)c43)nc(O[C@@H](C)[C@@H]3CCCN3C)c21` [I-21], the negative logarithm of the IC50 (pIC50) was 8.10.

`C[C@H](Oc1nc(-c2onc3c2CCC[C@@]32CCCc3sc(N)c(C#N)c32)nc2c1n(C)c(=O)n2[C@@H]1CCOC1)[C@@H]1C[C@H](F)CN1C` [I-27] had a pIC50 of 7.59.

`C[C@H](Oc1nc(-c2onc3c2CCC[C@@]32CCCc3sc(N)c(C#N)c32)nc2c1n(C)c(=O)n2C1CCOCC1)[C@@H]1CCCN1C` [I-10] gave a pIC50 of 7.37.

The compound `CO[C@@H]1C[C@@H]([C@H](C)Oc2nc(-c3onc4c3CCC[C@@]43CCCc4sc(N)c(C#N)c43)nc3c2n(C)c(=O)n3[C@@H]2CCOC2)N(C)C1` [I-3] had a negative logarithm of the IC50 (pIC50) of 8.22.

`C[C@H](Oc1nc(-c2noc3c2CCC[C@@]32CCCc3sc(N)c(C#N)c32)nc2c1n(C)c(=O)n2[C@@H]1CCOC1)[C@@H]1CCCN1C` [II-2] showed a pIC50 of 8.40.

As to `C[C@H](Oc1nc(-c2onc3c2CCC[C@@]32CCCc3sc(N)c(C#N)c32)nc2c1n(C)c(=O)n2[C@H]1CC2CCC1O2)[C@@H]1CCCN1C` (stereo partly drawn) [I-17], the pIC50 was 7.43.

A further data set deals with AsPC-1 cells. Briefly: AsPC-1 CTG proliferation assay (120 h) (pancreatic cancer, G12D). The class given is cell-based. The settings on record: Homo sapiens, ASPC1. Here is the method: as §1, with “AsPC-1” for “MKN1”, “(ATCC CRL-1682)” for “(JCRB0252)”, “500” for “200”, “RPMI” for “RPMI-1640”, “(PAN P04-18047)+10%” for “(Gibco #A10491)+10%”
as §2
Regarding `CCn1c(=O)n([C@@H]2CCOC2)c2nc(-c3onc4c3CCC[C@@]43CCCc4sc(N)c(C#N)c43)nc(O[C@@H](C)[C@@H]3CCCN3C)c21` [I-21], the negative logarithm of the IC50 (pIC50) was 6.49.

As to `C[C@H](Oc1nc(-c2onc3c2CCC[C@@]32CCCc3sc(N)c(C#N)c32)nc2c1n(C)c(=O)n2[C@@H]1CCOC1)[C@@H]1C[C@H](F)CN1C` [I-27], the negative logarithm of the IC50 (pIC50) was 5.64.

The compound `C[C@H](Oc1nc(-c2onc3c2CCC[C@@]32CCCc3sc(N)c(C#N)c32)nc2c1n(C)c(=O)n2C1CCOCC1)[C@@H]1CCCN1C` [I-10] showed a pIC50 of 5.46.

Regarding `CO[C@@H]1C[C@@H]([C@H](C)Oc2nc(-c3onc4c3CCC[C@@]43CCCc4sc(N)c(C#N)c43)nc3c2n(C)c(=O)n3[C@@H]2CCOC2)N(C)C1` [I-3], the pIC50 was 6.36.

The compound `C[C@H](Oc1nc(-c2noc3c2CCC[C@@]32CCCc3sc(N)c(C#N)c32)nc2c1n(C)c(=O)n2[C@@H]1CCOC1)[C@@H]1CCCN1C` [II-2] showed a pIC50 of 6.47.

`C[C@H](Oc1nc(-c2onc3c2CCC[C@@]32CCCc3sc(N)c(C#N)c32)nc2c1n(C)c(=O)n2[C@H]1CC2CCC1O2)[C@@H]1CCCN1C` (stereo partly drawn) [I-17] had a negative logarithm of the IC50 (pIC50) of 5.83.

A further data set deals with Ba/F3 cells KRAS G12V. In words: Ba/F3 proliferation assay (KRAS G12V). The class given is cell-based. As to conditions: Mus musculus, BaF3, 72 h, AlamarBlue viability. Summed up:
as §3
On to `CCn1c(=O)n([C@@H]2CCOC2)c2nc(-c3onc4c3CCC[C@@]43CCCc4sc(N)c(C#N)c43)nc(O[C@@H](C)[C@@H]3CCCN3C)c21` [I-21], for which the pIC50 was 8.30.

Turning to `C[C@H](Oc1nc(-c2onc3c2CCC[C@@]32CCCc3sc(N)c(C#N)c32)nc2c1n(C)c(=O)n2[C@@H]1CCOC1)[C@@H]1C[C@H](F)CN1C` [I-27], the pIC50 is 7.89.

In turn, `C[C@H](Oc1nc(-c2onc3c2CCC[C@@]32CCCc3sc(N)c(C#N)c32)nc2c1n(C)c(=O)n2C1CCOCC1)[C@@H]1CCCN1C` [I-10] gave a pIC50 of 7.80.

In the case of `CO[C@@H]1C[C@@H]([C@H](C)Oc2nc(-c3onc4c3CCC[C@@]43CCCc4sc(N)c(C#N)c43)nc3c2n(C)c(=O)n3[C@@H]2CCOC2)N(C)C1` [I-3], the negative logarithm of the IC50 (pIC50) is 8.52.

Turning to `C[C@H](Oc1nc(-c2noc3c2CCC[C@@]32CCCc3sc(N)c(C#N)c32)nc2c1n(C)c(=O)n2[C@@H]1CCOC1)[C@@H]1CCCN1C` [II-2], the pIC50 was 8.70.

Compound `C[C@H](Oc1nc(-c2onc3c2CCC[C@@]32CCCc3sc(N)c(C#N)c32)nc2c1n(C)c(=O)n2[C@H]1CC2CCC1O2)[C@@H]1CCCN1C` (stereo partly drawn) [I-17] showed a pIC50 of 7.70.

Tested on in the next data set: not listed separately
In words: Metabolic (microsomal) stability assay, human liver microsomes (HLM). The class given is in vitro ADME. As to conditions: 1 μM test compound, predicted clearance as percent of liver blood flow.
Consider `CCn1c(=O)n([C@@H]2CCOC2)c2nc(-c3onc4c3CCC[C@@]43CCCc4sc(N)c(C#N)c43)nc(O[C@@H](C)[C@@H]3CCCN3C)c21` [I-21], for which the “HLM QH” value was 45%.

Consider `C[C@H](Oc1nc(-c2onc3c2CCC[C@@]32CCCc3sc(N)c(C#N)c32)nc2c1n(C)c(=O)n2[C@@H]1CCOC1)[C@@H]1C[C@H](F)CN1C` [I-27], for which the “HLM QH” value is 58%.

Take `C[C@H](Oc1nc(-c2onc3c2CCC[C@@]32CCCc3sc(N)c(C#N)c32)nc2c1n(C)c(=O)n2C1CCOCC1)[C@@H]1CCCN1C` [I-10]: the “HLM QH” value is listed as 33%.

Consider `CO[C@@H]1C[C@@H]([C@H](C)Oc2nc(-c3onc4c3CCC[C@@]43CCCc4sc(N)c(C#N)c43)nc3c2n(C)c(=O)n3[C@@H]2CCOC2)N(C)C1` [I-3], for which the “HLM QH” value is recorded as 42%.

Consider `C[C@H](Oc1nc(-c2noc3c2CCC[C@@]32CCCc3sc(N)c(C#N)c32)nc2c1n(C)c(=O)n2[C@@H]1CCOC1)[C@@H]1CCCN1C` [II-2], for which the “HLM QH” value is recorded as 40%.

Take `C[C@H](Oc1nc(-c2onc3c2CCC[C@@]32CCCc3sc(N)c(C#N)c32)nc2c1n(C)c(=O)n2[C@H]1CC2CCC1O2)[C@@H]1CCCN1C` (stereo partly drawn) [I-17]: the “HLM QH” value is below 24%.

One may read the pIC50 as the IC50 on a negative log10 scale, so that one unit is a factor of ten. Higher therefore signals a small IC50.

(Values after patent publication US20250019385A1, “SPIROCYCLIC ANNULATED 2-AMINO-3-CYANO THIOPHENES AND DERIVATIVES FOR THE TREATMENT OF CANCER” (Boehringer Ingelheim International GmbH, priority 2023, published 2025).)
